Laboratory results reported in PMC5607274, “An iterative compound screening contest method for identifying target protein inhibitors using the tyrosine-protein kinase Yes” (Scientific Reports, 2017).

Target: T1, human recombinant Yes [a.a. 2–543 (end)] (Homo sapiens, UniProt P07947)
T1 construct: human recombinant Yes [a.a; 2–543 (end)]; purchased BPS Bioscience 40488
Test: ADP-Glo kinase assay, inhibition rates of Yes phosphorylation activity (first and second screening)
Type: biochemical
Details: first screening; mean of n = 4 wells; 10 μmol L−1 compound
Procedure, shortened: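 Hits from a first pass were rescreened after re-dissolution from fresh powder. The first pass reported the mean inhibition rate of quadruplicate wells per compound. Activity was that of recombinant human Yes [a.a. 2–543] kinase, read out with the ADP-Glo ADP-detection method.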

T1 sequence (P07947 2-543): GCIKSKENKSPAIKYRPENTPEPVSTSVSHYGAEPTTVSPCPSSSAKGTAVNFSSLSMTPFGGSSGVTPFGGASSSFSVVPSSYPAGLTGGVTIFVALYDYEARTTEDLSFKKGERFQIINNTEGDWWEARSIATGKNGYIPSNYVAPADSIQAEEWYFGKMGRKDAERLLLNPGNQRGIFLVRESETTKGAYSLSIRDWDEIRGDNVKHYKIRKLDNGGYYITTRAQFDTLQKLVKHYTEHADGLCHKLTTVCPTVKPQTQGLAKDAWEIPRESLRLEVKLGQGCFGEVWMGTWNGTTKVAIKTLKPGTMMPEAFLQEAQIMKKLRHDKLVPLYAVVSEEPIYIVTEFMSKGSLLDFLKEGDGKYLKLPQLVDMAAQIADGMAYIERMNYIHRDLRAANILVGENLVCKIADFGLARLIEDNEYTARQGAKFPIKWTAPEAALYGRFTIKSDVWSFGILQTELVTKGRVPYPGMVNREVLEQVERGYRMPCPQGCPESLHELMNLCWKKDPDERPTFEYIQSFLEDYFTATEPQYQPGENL

Point of comparison: `Cc1ccc(Cn2c(=O)/c(=C/c3ccc(N4CCOCC4)c([N+](=O)[O-])c3)s/c2=C/C(=O)C(C)(C)C)cc1` [Compound Z48770507], “First screening IR (inhibition rate)” value 31%. Against it:
- COc1ccccc1N1CCN(Cc2csc(NC(C)=O)n2)CC1 [Compound Z46164581] — lower, 3%
- CCOc1ccc(NC(=O)c2ccccc2NC(=O)CN2CCOCC2)cc1 [Compound Z46179735] — lower, 14%
- CCN(C(=O)CN1CCN(Cc2ccc3c(c2)OCO3)CC1)c1c(N)n(Cc2ccccc2)c(=O)[nH]c1=O [Compound Z46204583] — lower, 4%
- O=C(CN1CCN(S(=O)(=O)c2cccc(Cl)c2Cl)CC1)NC1CCCCCC1 [Compound Z46278335] — lower, -12%
- CCN(CC(=O)N1N=C(c2ccc(OC)cc2)CC1c1ccco1)Cc1nc2ccccc2c(=O)[nH]1 (stereo not drawn) [Compound Z46301463] — lower, -6%
- CN(CCS(=O)(=O)c1cc(Cl)ccc1Cl)Cc1nc2ccccc2c(=O)[nH]1 [Compound Z46302626] — lower, -9%
- Cc1ccc(C)c(S(=O)(=O)CCN(C)Cc2nc3ccccc3c(=O)[nH]2)c1 [Compound Z46302631] — lower, -9%
- CN(CC(=O)N1CCc2ccccc2C1)Cc1nc2ccccc2c(=O)[nH]1 [Compound Z46302902] — lower, -12%
- CCOC(=O)c1c(-c2ccc(OC)cc2)csc1NC(=O)CN1CCN(c2cccc(OC)c2)CC1 [Compound Z46356995] — lower, 9%
- CCOC(=O)c1c(-c2ccc(OC)c(OC)c2)csc1NC(=O)CN1CCN(c2cccc(OC)c2)CC1 [Compound Z46357060] — lower, 5%
- CCN(C(=O)CN(C)CC(=O)Nc1ccc(Cl)cc1)c1cccc2ccccc12 [Compound Z46378572] — higher, 33%
- COc1cccc(NC(=O)CN(C)CC(=O)Nc2cc(Cl)ccc2C#N)c1 [Compound Z46385937] — lower, 3%
- CCOC(=O)c1c(-c2ccc(F)cc2)csc1NC(=O)CN1CCN(Cc2cc(OC)ccc2OC)CC1 [Compound Z46402002] — lower, 5%
- CCn1c(CN2CCN(C(=O)c3ccccc3)CC2)nc2cc(S(=O)(=O)N3CCOCC3)ccc21 [Compound Z46404320] — lower, 1%
- CCOC(=O)c1c(-c2ccc(OC)c(OC)c2)csc1NC(=O)CN1CCN(C(=O)c2ccccc2)CC1 [Compound Z46404770] — lower, 2%
- CCOC(=O)C1=C(CN2CCN(Cc3nc4sc5c(c4c(=O)[nH]3)CCCC5)CC2)NC(=O)NC1CC (stereo not drawn) [Compound Z46405175] — lower, 0%
- CCN(C(=O)CN(C)CC(=O)Nc1c(C)cc(C)cc1C)c1cccc2ccccc12 [Compound Z46455760] — lower, -4%
- Cc1sc2nc(-c3cccc(NC(=O)CN4CCN(CC5CCCO5)CC4)c3)[nH]c(=O)c2c1C (stereo not drawn) [Compound Z46510296] — lower, 2%
- Cc1cccc(/C=C/c2cc(C(=O)O)c3ccccc3n2)c1 [Compound Z46532935] — higher, 46%
- COc1ccc2c(c1)CC/C(=C\c1ccc(Cl)c(Cl)c1)C2=O [Compound Z46584361] — lower, 30%
- COc1ccc2c(c1)CC/C(=C\c1cccc(C)c1)C2=O [Compound Z46584406] — lower, -6%
- O=C(/C=C/c1cc2ccccc2nc1N1CCOCC1)c1ccc(S(=O)(=O)N2CCCC2)cc1 [Compound Z46590414] — lower, 1%
- CN(C)c1ccc(/C=c2/s/c(=C/C(=O)C(C)(C)C)[nH]c2=O)cc1 [Compound Z46615661] — lower, -8%
- Cc1ccc(-n2c(=O)/c(=C/c3ccc4c(c3)OCO4)s/c2=C(/C#N)C(=O)NCCN2CCOCC2)c(C)c1 [Compound Z47840324] — lower, -11%
- Cc1ccc(C)c(-n2c(=O)/c(=C/c3ccc(OC(F)F)cc3)s/c2=C(/C#N)C(=O)NCCN2CCOCC2)c1 [Compound Z47852683] — lower, 15%
- CN(C)c1ccc(/C=c2/s/c(=C(/C#N)C(=O)NCCN3CCOCC3)n(Cc3ccco3)c2=O)cc1 [Compound Z48025165] — lower, 27%
- Cc1ccc(NC(=O)CC2SC(=Nc3ccccc3C)N(CCCN3CCOCC3)C2=O)c([N+](=O)[O-])c1 (stereo not drawn) [Compound Z48462494] — lower, -3%
- CCOC(=O)/C=c1\s/c(=C/c2ccc(N3CCCCC3)c([N+](=O)[O-])c2)c(=O)n1CC(=O)N1CCC(C)CC1 [Compound Z48712692] — lower, 25%
- CCOC(=O)/C=c1\s/c(=C/c2ccc(N3CCOCC3)c([N+](=O)[O-])c2)c(=O)n1CC(=O)N1CCC(C)CC1 [Compound Z48712790] — lower, -4%
- N#C/C(=C(/O)CN1CCN(S(=O)(=O)c2ccccc2C#N)CC1)c1nc2ccccc2[nH]1 [Compound Z48805202] — lower, -4%
- NC(=O)c1cc(-c2csc(NCc3ccccc3)n2)ccc1O [Compound Z48850058] — higher, 39%
- Cc1ccc(CNc2nc(-c3ccc(O)c(C(N)=O)c3)cs2)cc1 [Compound Z48851233] — lower, 10%
- COc1ccc(Nc2nc(-c3ccc(Cl)s3)cs2)cc1 [Compound Z48857068] — lower, 4%
- Cl.Fc1ccc(-c2cc(-c3ccccc3)c3cc(Cl)ccc3n2)cc1 [Compound Z48950786] — lower, -4%
- COc1cccc(-c2cc(-c3ccccc3)c3cc(Cl)ccc3n2)c1.Cl [Compound Z48950797] — lower, 1%
- Cc1ccc(-c2cc(-c3ccccc3)c3cc(Cl)ccc3n2)cc1.Cl [Compound Z48950811] — higher, 59%
- Cc1c(-c2ccccc2)nc2ccc(Cl)cc2c1-c1ccccc1.Cl [Compound Z48950813] — lower, 20%
- Cl.Oc1ccc(-c2cc(-c3ccccc3)c3cc(Cl)ccc3n2)cc1 [Compound Z48950817] — higher, 51%
- Cl.Clc1ccc(-c2cc(-c3ccccc3)c3cc(Cl)ccc3n2)cc1 [Compound Z48950819] — higher, 36%
- Cl.N#Cc1ccc(-c2cc(-c3ccccc3)c3cc(Cl)ccc3n2)cc1 [Compound Z48950825] — higher, 58%
- Cc1c(-c2ccc(O)cc2)nc2ccc(Cl)cc2c1-c1ccccc1.Cl [Compound Z48950829] — higher, 33%
- Cc1ccc(O)c(-c2cc(-c3ccccc3)c3cc(Cl)ccc3n2)c1.Cl [Compound Z48950854] — lower, -11%
- Cl.Oc1ccccc1-c1cc(-c2ccccc2)c2cc(Cl)ccc2n1 [Compound Z48950876] — lower, 3%
- Cl.Fc1ccc(-c2nc3ccc(Cl)cc3c(-c3ccccc3)c2CCCl)cc1 [Compound Z48950878] — lower, 10%
- Cl.Fc1ccccc1-c1cc(-c2ccccc2)c2ccccc2n1 [Compound Z48951009] — lower, 5%
- Cl.Fc1ccc(-c2cc(-c3ccccc3)c3ccccc3n2)cc1 [Compound Z48951014] — lower, 18%
- COc1cccc(-c2cc(-c3ccccc3)c3ccccc3n2)c1.Cl [Compound Z48951025] — lower, -6%
- Brc1ccc(-c2cc(-c3ccccc3)c3ccccc3n2)cc1.Cl [Compound Z48951036] — lower, 5%
- Cc1ccc(-c2cc(-c3ccccc3)c3ccccc3n2)cc1.Cl [Compound Z48951039] — lower, 11%
- Cl.Oc1ccc(-c2cc(-c3ccccc3)c3ccccc3n2)cc1 [Compound Z48951045] — lower, 24%
- Cl.Clc1ccc(-c2cc(-c3ccccc3)c3ccccc3n2)cc1 [Compound Z48951047] — lower, 8%
- COc1ccccc1-c1cc(-c2ccccc2)c2ccccc2n1.Cl [Compound Z48951051] — lower, 3%
- Cl.Fc1cccc(F)c1-c1cc(-c2ccccc2)c2ccccc2n1 [Compound Z48951059] — lower, 4%
- Cc1c(-c2ccc(OC(F)F)cc2)nc2ccccc2c1-c1ccccc1.Cl [Compound Z48951073] — lower, 4%
- Cc1ccc(O)c(-c2cc(-c3ccccc3)c3ccccc3n2)c1.Cl [Compound Z48951082] — lower, 1%
- Cc1c(-c2ccccc2)nc2ccc(Cl)cc2c1-c1ccccc1Cl.Cl [Compound Z48951725] — lower, -2%
- Cl.Oc1ccc(-c2cc(-c3ccccc3Cl)c3cc(Cl)ccc3n2)cc1 [Compound Z48951729] — lower, 10%
- Cl.Clc1ccc(-c2cc(-c3ccccc3Cl)c3cc(Cl)ccc3n2)cc1 [Compound Z48951731] — lower, -3%
- Cl.N#Cc1ccc(-c2cc(-c3ccccc3Cl)c3cc(Cl)ccc3n2)cc1 [Compound Z48951737] — lower, 1%

Same assay, conditions: second screening, dissolved from fresh powder; n = 4; 10 μmol L−1 compound

Point of comparison: `Cc1ccc(-c2cc(-c3ccccc3)c3cc(Cl)ccc3n2)cc1.Cl` [Compound Z48950811], “Second screening IR (inhibition rate)” value -7%. Against it:
- CN(C)c1ccc(/C=c2/s/c(=C(/C#N)C(=O)NCCN3CCOCC3)n(Cc3ccco3)c2=O)cc1 [Compound Z48025165] — higher, -4%
- NC(=O)c1cc(-c2csc(NCc3ccccc3)n2)ccc1O [Compound Z48850058] — higher, 28%
- Cl.Oc1ccc(-c2cc(-c3ccccc3)c3cc(Cl)ccc3n2)cc1 [Compound Z48950817] — higher, -2%
- Cl.Clc1ccc(-c2cc(-c3ccccc3)c3cc(Cl)ccc3n2)cc1 [Compound Z48950819] — lower, -13%
- Cc1c(-c2ccc(O)cc2)nc2ccc(Cl)cc2c1-c1ccccc1.Cl [Compound Z48950829] — higher, 14%
